Experimental data reported in publication PMC6968685 (Journal of Enzyme Inhibition and Medicinal Chemistry, 2020).
Read-outs that look alike come from different tables or passages of the source.

Tests used:
[1] = test system: human telomeric sequence F21T G-quadruplex; assay: FRET melting experiments, F21T; type: binding; conditions: K+ conditions
Protocol: (§1) These were performed with dual-labelled oligonucleotides mimicking the Plasmodium telomeric sequences FPf1T [FAM-5′(GGGTTTA)3-GGG3′-TAMRA] and FPf8T [FAM-5′ (GGGTTCA)3GGG3′-TAMRA], the Trypanosoma 9 and 11 chromosomic sequence FTrypBT (also named FEBR1T) [FAM-5′[…]3′-TAMRA], the human telomeric sequence F21T [FAM-(GGGTTA)3-GGG3′-TAMRA], and the human duplex sequence FdxT [FAM5′-[…]-hexaethyleneglycol-[…]3′-TAMRA][51]^,[52]. The oligonucleotides were pre-folded in 10 mM lithium cacodylate buffer (pH 7.2), with 10 mM KCl and 90 mM LiCl (K^+condition). The FAM emissions were recorded at 516 nm using a 492-nm excitation wavelength in the absence and presence of a single compound as a function of temperature (25–95 °C) in 96-well microplates by using a Stratagene MX3000P real-time PCR device at a rate of 1 °C·min^−1. Data were normalised between 0 and 1, and the required temperature for half-denaturation of oligonucleotides corresponding to the emission value of 0.5 was taken as the Tm. […] For each compound, three independent experiments were carried out.

[2] = Cytotoxicity evaluation, MTT; type: cell-based, human; conditions: human
Outline: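 HepG2 hepatocarcinoma cells exposed to compound in duplicate, then viability measured by MTT reduction (0.5 mg/ml), formazan dissolved in DMSO and read at 570 nm against 630 nm. Viability expressed as percent of untreated cells; CC50 taken from dose-response curve, doxorubicin as positive control.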

[3] = test system: P. falciparum CQ-resistant strain W2; assay: In vitro antiplasmodial activity, SYBR Green I fluorescence-based method, strain W2; type: cell-based; conditions: Plasmodium falciparum, read-out: P. falciparum strains IC50 values, W2
Protocol: The in vitro antiplasmodial activities were tested over concentrations ranging from […] against culture-adapted P. falciparum reference strains 3D7 and W2. […] The parasites were cultivated in RPMI medium (Sigma-Aldrich, Lyon, France) supplemented with 0.5% Albumax I (Life Technologies Corporation, Paisley, UK), hypoxanthine (Sigma-Aldrich), and gentamicin (Sigma-Aldrich) with human erythrocytes and were incubated at 37 °C in a candle jar, as described previously[43] .The P. falciparum drug susceptibility test was carried out in 96-well flat-bottom sterile plates in a final volume of 250 µl. After 48 h incubation period with the drugs, quantities of DNA in treated and control cultures of parasites in human erythrocytes were quantified using the SYBR Green I (Sigma-Aldrich) fluorescence-based method[44]^,[45]. Briefly, after incubation, plates were frozen at −20 °C until use. Plates were then thawed for 2 h at room temperature, and 100 µl of each homogenised culture was transferred to a well of a 96-well flat-bottom sterile black plate (Nunc, Inc., Rochester, NY) that contained 100 µl of the SYBR Green I lysis buffer (2xSYBR Green, 20 mM Tris base pH 7.5, 5 mM EDTA, 0.008% w/v saponin, 0.08% w/v Triton X-100). […] Plates were incubated for 1 h at room temperature and then read on a fluorescence plate reader (Tecan, Grödig, Austria) using excitation and emission wavelengths of 485 and 535 nm, respectively. IC50 values were calculated by non-linear regression analysis of data from dose-response curves, using TableCurve 2D version 5.0 software (Systat Software, San Jose, CA). IC50 values are reported as means calculated from three independent experiments.

[4] = test system: T. brucei brucei AnTat 1.9; assay: In vitro antitrypanosomal activity, Alamar Blue assay; type: cell-based; conditions: Trypanosoma brucei; slender bloodstream trypomastigotes, AnTat 1.9 strain; read-out: Trypanosoma brucei brucei IC50 values, Trypanos Antat 1.9
Outline: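 Viability read-out: resazurin (Alamar Blue) fluorescence, 530 nm excitation/590 nm emission, after 5 h dye exposure following 69 h compound incubation at 37 °C, 5% CO2, 2000 parasites per well, doses in duplicate. IC50 values fitted nonlinearly, three independent runs.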

[5] = test system: L. donovani (MHOM/IN/00/DEVI) promastigotes; assay: In vitro antileishmanial activity, MTT assay on promastigotes; type: cell-based; conditions: Leishmania donovani, 72 h incubation, ≥10 = no activity noted at the highest concentration tested
Outline: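 Log-phase L. donovani MHOM/IN/00/DEVI promastigotes (10^6/ml, Schneider's + 20% FCS) were exposed to graded compound concentrations (DMSO <0.5% v/v) for 72 h at 27 °C, in duplicate. Growth measured by MTT reduction (4 h, A570 nm); IC50 obtained by regression.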

[6] = test system: P. falciparum CQ-sensitive strain 3D7; assay: In vitro antiplasmodial activity, SYBR Green I fluorescence-based method, strain 3D7; type: cell-based; conditions: Plasmodium falciparum, read-out: P. falciparum strains IC50 values, 3D7
Outline: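 P. falciparum 3D7 and W2 cultured in human erythrocytes in RPMI with 0.5% Albumax I at 37 °C, exposed 48 h to compounds tested […]. Parasite DNA read by SYBR Green I fluorescence (ex 485/em 535 nm); IC50 by non-linear regression, mean of three independent experiments.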

[7] = test system: Plasmodium telomeric sequence FPf1T G-quadruplex; assay: FRET melting experiments, FPf1T; type: binding, P. falciparum; conditions: K+ conditions
Protocol: as §1

[8] = test system: human duplex sequence FdxT; assay: FRET melting experiments, FdxT duplex control; type: binding; conditions: K+ conditions
Protocol: as §1

[9] = test system: Trypanosoma 9 and 11 chromosomic sequence FTrypBT (FEBR1T) G-quadruplex; assay: FRET melting experiments, FtrypBT; type: binding, T. brucei brucei; conditions: K+ conditions
Protocol: as §1

[10] = test system: Plasmodium telomeric sequence FPf8T G-quadruplex; assay: FRET melting experiments, FPf8T; type: binding, P. falciparum; conditions: K+ conditions
Protocol: as §1

[11] = 2 μM compound, 0.2 μM oligonucleotide
[12] = chloroquine-resistant strain W2, 48 h incubation
[13] = chloroquine-sensitive strain 3D7, 48 h incubation

SMILES	ΔTm F21T [1, 11] [°C]	CC50 at 72 h [2] [µM]	IC50 [3, 12] [µM]	IC50 [4] [µM]	IC50 [5] [µM]	IC50 [6, 13] [µM]	ΔTm FPf1T [7, 11] [°C]	ΔTm FdxT [8, 11] [°C]	ΔTm FtrypBT [9, 11] [°C]	ΔTm FPf8T [10, 11] [°C]	ΔTm F21T ([1]; tested at 0.5 μM) [°C]	ΔTm FPf1T ([7]; tested at 0.5 μM) [°C]	ΔTm FdxT ([8]; tested at 0.5 μM) [°C]	ΔTm FtrypBT ([9]; tested at 0.5 μM) [°C]	ΔTm FPf8T ([10]; tested at 0.5 μM) [°C]	ΔTm F21T ([1]; tested at 1 μM) [°C]	ΔTm FPf1T ([7]; tested at 1 μM) [°C]	ΔTm FPf8T ([10]; tested at 1 μM) [°C]	IC50 ([3]; W2, 48 h) [µM]	IC50 ([6]; 3D7, 48 h) [µM]
CN(C)CCCNCc1ccc(-c2cc3ccccc3c(-c3ccc(CNCCCN(C)C)cc3)n2)cc1 [Compound 2b, 1,3-Bis{4-[(3-dimethylaminopropyl)aminomethyl]phenyl}isoquinoline]	12.7 ± 0.3	3.47 ± 0.3	3.02 ± 0.25	0.35 ± 0.049	≥ 10	1.82 ± 0.31	13.6 ± 1.3	0.3 ± 0.2	11.7 ± 0.6	13.0 ± 1.1										
C[n+]1cc(NC(=O)c2ccc3ccc4ccc(C(=O)Nc5cc6ccccc6[n+](C)c5)nc4c3n2)cc2ccccc21 [PhenDC3, reference compound]											26.3 ± 0.1	24.6 ± 0.1	0.1 ± 0.2	19.2 ± 0.2	24.7 ± 0.2					
COc1ccc2nc(-c3ccc(CNCCCCN(C)C)cc3)nc(-c3ccc(CNCCCCN(C)C)cc3)c2c1 [Compound 3h, 6-Methoxy-2,4-bis{4-[(4-dimethylaminobutyl)aminomethyl]phenyl}quinazoline]	16.4 ± 1.3	11.7 ± 1.2	3.68 ± 0.5	0.27 ± 0.035	≥ 10	3.84 ± 0.38	19.8 ± 0.6	2.0 ± 0.2	15.7 ± 0.3	18.8 ± 0.7										
COc1ccc2nc(-c3ccc(CNCCCN(C)C)cc3)nc(-c3ccc(CNCCCN(C)C)cc3)c2c1 [Compound 3i, 6-Methoxy-2,4-bis{4-[(3-dimethylaminopropyl)aminomethyl]phenyl}quinazoline]	12.6 ± 0.0	1.93 ± 0.1	4.34 ± 0.74	0.44 ± 0.084	≥ 10	4.05 ± 0.95	16.0 ± 0.3	0.3 ± 0.3	12.7 ± 0.7	15.6 ± 0.3										
c1cc(CNCCN2CCOCC2)cc(-c2nc(-c3cccc(CNCCN4CCOCC4)c3)c3ccccc3n2)c1 [Compound 3v, 2,4-Bis{3-[(2-morpholinoethyl)aminomethyl]phenyl}quinazoline]	0.1 ± 0.1	6.46 ± 1		1.37 ± 0.658	≥ 10	0.36 ± 0.126	0.5 ± 0.3	0.0 ± 0.0	0.6 ± 0.1	0.5 ± 0.4										
c1ccc2c(-c3ccc(CNCCCN4CCOCC4)cc3)nc(-c3ccc(CNCCCN4CCOCC4)cc3)nc2c1 [Compound 3f, 2,4-Bis{4-[(3-morpholinopropyl)aminomethyl]phenyl}quinazoline]	3.1 ± 0.5	4.52 ± 0.4		0.81 ± 0.063	≥ 10	0.42 ± 0.083	3.3 ± 0.3	−0.2 ± 0.2	2.8 ± 0.1	2.9 ± 0.3										
CN(C)CCCNCc1ccc(-c2nc(-c3ccc(CNCCCN(C)C)cc3)c3ccccc3n2)cc1 [Compound 3b, 2,4-Bis{4-[(3-dimethylaminopropyl)aminomethyl]phenyl}quinazoline]	13.2 ± 0.3	4.01 ± 0.8		1.18 ± 0.057	≥ 10	0.62 ± 0.077	11.6 ± 1.1	0.1 ± 0.1	10.0 ± 0.4	11.2 ± 0.8										
c1ccc2c(-c3ccc(CNCCCN4CCOCC4)cc3)cc(-c3ccc(CNCCCN4CCOCC4)cc3)nc2c1 [Compound 1g, 2,4-Bis{4-[(3-morpholinopropyl)aminomethyl]phenyl}quinoline]	7.1 ± 2.7	1.47 ± 0.3		0.38 ± 0.045	≥ 10	0.099 ± 0.007	3.7 ± 0.3	−1.8 ± 0.4	2.0 ± 0.2	3.7 ± 0.6										
OC(c1cc(C(F)(F)F)nc2c(C(F)(F)F)cccc12)C1CCCCN1 (stereo not drawn) [Mefloquine, reference compound]			0.016 ± 0.002			0.06 ± 0.003										2.6 ± 0.5	3.1 ± 0.5	6.6 ± 2.3		
CCN(CC)CCCC(C)Nc1ccnc2cc(Cl)ccc12 (stereo not drawn) [Chloroquine, reference compound]																2.4 ± 1.1	1.9 ± 0.1	2.4 ± 1.2	0.4 ± 0.04	0.11 ± 0.01
c1cc(CNCCCN2CCOCC2)cc(-c2cc(-c3cccc(CNCCCN4CCOCC4)c3)c3ccccc3n2)c1 [Compound 1s, 2,4-Bis{3-[(3-morpholinopropyl)aminomethyl]phenyl}quinoline]	2.5 ± 0.1	2.63 ± 0.5		0.73 ± 0.264	≥ 10	0.21 ± 0.04	3.0 ± 0.4	−1.5 ± 0.4	1.8 ± 0.7	2.8 ± 0.5										
c1cc(CNCCN2CCOCC2)cc(-c2cc(-c3cccc(CNCCN4CCOCC4)c3)c3ccccc3n2)c1 [Compound 1t, 2,4-Bis{3-[(2-morpholinoethyl)aminomethyl]phenyl}quinoline]	0.3 ± 0.3	3.93 ± 1.1		0.46 ± 0.12	≥ 10	0.23 ± 0.021	0.9 ± 0.2	−1.6 ± 0.4	0.6 ± 0.4	0.6 ± 0.7										
c1ccc2c(-c3ccc(CNCCN4CCOCC4)cc3)nc(-c3ccc(CNCCN4CCOCC4)cc3)nc2c1 [Compound 3g, 2,4-Bis{4-[(2-morpholinoethyl)aminomethyl]phenyl}quinazoline]	4.2 ± 2.1	4.08 ± 0.6		1.27 ± 0.632	≥ 10	0.15 ± 0.027	1.4 ± 0.1	0.3 ± 0.2	1.0 ± 0.5	1.2 ± 0.4										
